Marks after values point to notes of the source that are not given here.
Legend:
THP-1 cells [1] = experiment: THP-1 copolymer assay: secretion of IFN-γ-regulated chemokines, cytokines, receptors and proteases, Searchlight multiplex analysis; type: cell-based, human; conditions: IFN-γ 10 ng/ml, 22-24 hours, 12 samples
THP-1 cells [2] = experiment: as above; type: cell-based, human; conditions: for I-TAC / IP-10 / MIG: IFN-γ 10 ng/ml, 22-24 hours, 12 samples
Protocol: THP-1 cells (ATCC, TIB-202) were received from the American Type Culture Collection (ATCC). […] Cells were grown in complete growth medium and incubated in a 37° C., 5% CO2 incubator.
Assay medium was prepared fresh the day of the assay. The assay medium consisted of 2 mM Glutamax I Supplement (Invitrogen, 35050-79) in X-VIVO 15 serum-free medium (Cambrex, 04-418Q). These reagents were filtered in a 0.2 micron cellulose acetate filter unit (Nalgene, 156-4020). After filtration, the bottle was covered with foil to protect the medium from light.
COPAXONE® (glatiramer acetate; Teva Pharmaceuticals) was stored in the manufacturer's syringe at 4° C. Samples were prepared at a 2× concentration in the 2×IFN-γ assay medium in sterile, siliconized microfuge tubes. Final concentrations from 0 μg/ml to 400 μg/ml were tested in the assay.
Human IFN-γ (R&D Systems, 285-IF-100) was reconstituted with sterile 0.2% bovine serum albumin (BSA) in phosphate-buffered saline (PBS) (Chemicon, 3225-80).
On the day prior to assay, THP-1 cells were seeded at 2×10^5 cells/ml (20 ml final volume). These cells were harvested by centrifugation at 400×g, 5 min, 18° C. Cells were washed once with assay medium (without IFN-γ) and resuspended in assay medium (without IFN-γ) and counted. THP-1 cells were resuspended at 5×10^5 cells/ml in assay medium (with 0, 1, 10, and 100 ng/ml final concentration of IFN-γ). […] Assay plates were incubated for 0 to 23 hours in a 37° C., 5% CO2 incubator.
Conditioned medium was harvested into non-sterile, siliconized tubes. Tubes were centrifuged at 400×g, 5 min, 4° C. The supernatants were transferred to new, siliconized tubes and flash frozen in liquid nitrogen. Frozen conditioned medium was stored at −80° C. until they were submitted for Searchlight multiplex cytokine analysis (Pierce Endogen, Woburn, Mass.).

[3] = 50 μg/ml COPAXONE and 10 ng/ml IFN-γ, FIG. 1
[4] = 23 hours, GA 2 μg/ml, IFNγ 0 ng/ml
[5] = 23 hours, GA 2 μg/ml, IFNγ 10 ng/ml
[6] = 23 hours, GA 2 μg/ml, IFNγ 100 ng/ml
[7] = 23 hours, GA 2 μg/ml, IFNγ 1000 ng/ml
[8] = 23 hours, GA 10 μg/ml, IFNγ 0 ng/ml
[9] = 23 hours, GA 10 μg/ml, IFNγ 10 ng/ml
[10] = 23 hours, GA 10 μg/ml, IFNγ 100 ng/ml
[11] = 23 hours, GA 10 μg/ml, IFNγ 1000 ng/ml
[12] = IFNγ + 50 μg/ml I356 over IFNγ alone (10 ng/ml)

## glatiramer acetate [COPAXONE®]
THP-1 cells [1]; [GA] 0.78 μg/ml
  MIG: 149.7 pg/mL
THP-1 cells [1]; [GA] 1.56 μg/ml
  MIG: 345.6 pg/mL
THP-1 cells [1]; [GA] 3.13 μg/ml
  MIG: 933.6 pg/mL
THP-1 cells [1]; [GA] 12.5 μg/ml
  IP-10: 782.6 pg/mL
THP-1 cells [1]; [GA] 25 μg/ml
  I-TAC: 247.1 pg/mL
THP-1 cells [1]; [GA] 200 μg/ml
  IP-10: 10899 pg/mL
THP-1 cells [1]; [GA] 400 μg/ml
  MIG: 27574.5 pg/mL
THP-1 cells [2]; [3]
  I-TAC level, fold higher than baseline containing IFN-γ alone: 412 fold
  IP-10 level, fold higher than baseline containing IFN-γ alone: 329 fold
  MIG level, fold higher than baseline containing IFN-γ alone: 573 fold
THP-1 cells [2]; [4]
  I-TAC induction, fold increase over the control (0): 1 fold
  IP-10 induction, fold increase over the control (0): 0 fold
  MIG induction, fold increase over the control (0): 1 fold
THP-1 cells [2]; [5]
  I-TAC induction, fold increase over the control (0): 10 fold
  IP-10 induction, fold increase over the control (0): 72 fold
  MIG induction, fold increase over the control (0): 21 fold
THP-1 cells [2]; [6]
  I-TAC induction, fold increase over the control (0): 46 fold
  IP-10 induction, fold increase over the control (0): 49 fold
  MIG induction, fold increase over the control (0): 39 fold
THP-1 cells [2]; [7]
  I-TAC induction, fold increase over the control (0): 23 fold
  IP-10 induction, fold increase over the control (0): 13 fold
  MIG induction, fold increase over the control (0): 23 fold
THP-1 cells [2]; [8]
  I-TAC induction, fold increase over the control (0): 4 fold
  IP-10 induction, fold increase over the control (0): 0 fold
  MIG induction, fold increase over the control (0): 1 fold
THP-1 cells [2]; [9]
  I-TAC induction, fold increase over the control (0): 51 fold
  IP-10 induction, fold increase over the control (0): 233 fold
  MIG induction, fold increase over the control (0): 284 fold
THP-1 cells [2]; [10]
  I-TAC induction, fold increase over the control (0): 113 fold
  IP-10 induction, fold increase over the control (0): 67 fold
  MIG induction, fold increase over the control (0): 333 fold
THP-1 cells [2]; [11]
  I-TAC induction, fold increase over the control (0): 49 fold
  IP-10 induction, fold increase over the control (0): 14 fold
  MIG induction, fold increase over the control (0): 160 fold
THP-1 cells [2]; 23 hours, IP-10, I-TAC, MIG
  IFN-γ concentration at which fold-induction over baseline is maximal: 1 to 10 ng/mL
THP-1 cells [2]; COPAXONE alone, no IFN-γ
  IP-10 production in the absence of IFN-γ: do not produce any significant amount
THP-1 cells [2]; COPAXONE and the higher IFN-γ concentrations
  Earliest time at which lower levels of IP-10, I-TAC and MIG can be detected: 3 to 6 h
THP-1 cells [2]; COPAXONE in combination with IFN-γ
  Effect on secretion of IP-10, I-TAC and MIG: striking, concentration-dependent effect
THP-1 cells [2]; IFNγ 10 ng/ml + 50 μg/ml I356
  I309 secretion: 15.6* pg/ml
  ICAM1 secretion: 279.9* pg/ml
  IL1β secretion: 0.5* pg/ml
  IL12p70 secretion: 8.9* pg/ml
  IL-6 secretion: 3.8* pg/ml
  IL-8 secretion: 217.1* pg/ml
  IL-10 secretion: 0.7* pg/ml
  IP10 secretion: 4060.5* pg/ml
  MCP1 secretion: 688.2* pg/ml
  MDC secretion: 23.6* pg/ml
  MIP1α secretion: 73.9* pg/ml
  MMP2 secretion: 915.9* pg/ml
  MMP9 secretion: 8.9* pg/ml
  RANTES secretion: 352.2* pg/ml
  TARC secretion: 35.2* pg/ml
  TIMP1 secretion: 6364.3* pg/ml
  TNFR1 secretion: 35.8* pg/ml
  TNFR2 secretion: 34.4* pg/ml
  TNFα secretion: 61.3* pg/ml
THP-1 cells [2]; IFNγ 10 ng/ml + 50 μg/ml I356, 24 hr
  IFNγ level in culture medium: 4575.9* pg/ml
THP-1 cells [2]; [12]
  I309 Fold-increase: 9.7 fold
  ICAM1 Fold-increase: 6.0 fold
  IFNγ Fold-increase: 9.7 fold
  IL1β Fold-increase: 2.4 fold
  IL12p70 Fold-increase: 1.9 fold
  IL-6 Fold-increase: 19.0 fold
  IL-8 Fold-increase: 8.5 fold
  IL-10 Fold-increase: 2.0 fold
  IP10 Fold-increase: 226.3 fold
  MCP1 Fold-increase: 21.3 fold
  MDC Fold-increase: 10.6 fold
  MIP1α Fold-increase: 7.1 fold
  MMP2 Fold-increase: 5.8 fold
  MMP9 Fold-increase: 0.2 fold
  RANTES Fold-increase: 3.6 fold
  TARC Fold-increase: 3.0 fold
  TIMP1 Fold-increase: 1.7 fold
  TNFR1 Fold-increase: 5.2 fold
  TNFR2 Fold-increase: 3.1 fold
  TNFα Fold-increase: 1.8 fold
THP-1 cells [2]; X-VIVO15 serum-free defined medium compared with FBS media
  Fold induction over baseline by culture medium: highest fold induction over baseline
THP-1 cells [2]; [GA] 0.78 μg/ml
  I-TAC: 16.5 pg/mL
  IP-10: 259.2 pg/mL
THP-1 cells [2]; [GA] 1.56 μg/ml
  I-TAC: 42.1 pg/mL
  IP-10: 483.7 pg/mL
THP-1 cells [2]; [GA] 3.13 μg/ml
  I-TAC: 82.6 pg/mL
  IP-10: 580.8 pg/mL
THP-1 cells [2]; [GA] 6.25 μg/ml
  I-TAC: 105.9 pg/mL
  IP-10: 581.4 pg/mL
  MIG: 2704.5 pg/mL
THP-1 cells [2]; [GA] 12.5 μg/ml
  I-TAC: 179.2 pg/mL
  MIG: 3608 pg/mL
THP-1 cells [2]; [GA] 25 μg/ml
  IP-10: 829 pg/mL
  MIG: 4480.6 pg/mL
THP-1 cells [2]; [GA] 50 μg/ml
  I-TAC: 532.6 pg/mL
  IP-10: 2150.8 pg/mL
  MIG: 13771.2 pg/mL
THP-1 cells [2]; [GA] 100 μg/ml
  I-TAC: 2444 pg/mL
  IP-10: 12865.1 pg/mL
  MIG: 45353.3 pg/mL
THP-1 cells [2]; [GA] 200 μg/ml
  I-TAC: 2091.2 pg/mL
  MIG: 37897.5 pg/mL
THP-1 cells [2]; [GA] 400 μg/ml
  I-TAC: 1560.5 pg/mL
  IP-10: 6111.3 pg/mL
THP-1 cells [2]; measured at 24 hours
  IFN-γ levels with COPAXONE treatment: concentration-dependent increase
THP-1 cells [2]; various concentrations of FBS or X-VIVO15 serum-free medium
  Secretion of IP-10, MIG, I-TAC and IFN-γ in all medium conditions: robust secretion

From patent US8753833B2, “Copolymer assay” (Momenta Pharmaceuticals, Inc., priority 2007, dated 2014)
